Test results as given in patent publication US9040712B2, “Thiadiazole analogs thereof and methods for treating SMN-deficiency-related-conditions” (NOVARTIS AG, priority 2013, dated 2015).

tested on: SMN protein; assay: cellular SMN ELISA (SMN protein elevation); assay type: cell-based; settings: myoblast cell line derived from SMNdelta7 mouse model; 24 hours compound treatment; concentration range 100 pM-10 uM
Method: A cellular SMN ELISA was used to measure the effects of low molecular weight compounds on SMN protein elevation. Cells from a myoblast cell line derived from the SMNdelta7 mouse model (kind gift from Steve Burden, NYU) were seeded into a 384-well plate at a density of 3000 cells/well and treated with compounds for 24 hours. ELISA capture plates were prepared by coating 384-well plates (Immulon 4HBX) with 0.5 ug/mL of anti-SMN mAb (BD Science, Catalog number 610647) at 4° C. overnight. The plates were washed 5 times with 110 uL of PBS-Tween (0.05% Tween-20, PBST), blocked with 100 uL of 1% BSA in PBST for 2 hours and washed (5 times) with 100 uL of PBST. After 24 hours of compound treatment cells were lysed in a modified RIPA-buffer, on ice for 1 hour. 20 uL of lysate and 20 uL of 1% BSA were then added to the ELISA capture plates and incubated at 4° C. overnight. Plates were washed (5 times) with PBST and then incubated with 1:100 dilution of primary rabbit anti-SMN polyclonal antibody (Santa cruz, Catalog number SC-15320) at room temperature for 1 hour and subsequently washed (5 times) with 110 uL of PBST. This was followed by addition of 1:100 Goat anti-Rabbit IgG-HRP linked (Cell Signaling, Catalog number 7074) secondary antibody for 1 hour. Plates were then washed with PBST and incubated with 40 uL TMB substrate (Cell Signaling, Catalog number 7004L) at room temperature for 1-10 minutes with shaking. The reaction was stopped by addition of 40 uL of stop solution (Cell signaling, Catalog number 7002L) and absorption was measured at 450 nm. Data was reported as fold activation over DMSO control and EC50. ELISA assay condition: compound concentration range 100 pM-10 uM.

| Structure (SMILES) | SMN Activity Fold (fold activation over DMSO control) | EC50 [nM] |
| --- | --- | --- |
| CN(c1nnc(-c2c(O)cc(-c3cnn(C)c3)cc2Cl)s1)C1CC(C)(C)NC(C)(C)C1 [Example 26, 3-Chloro-2-(5-(methyl(2,2,6,6-tetramethylpiperidin-4-yl)amino)-1,3,4-thiadiazol-2-yl)-5-(1-methyl-1H-pyrazol-4-yl)phenol] | 2.26 fold |  |
| CN(c1nnc(-c2ccc(-n3ccnc3)cc2Cl)s1)C1CC(C)(C)NC(C)(C)C1 [Example 71, 5-(2-chloro-4-(1H-imidazol-1-yl)phenyl)-N-methyl-N-(2,2,6,6-tetramethylpiperidin-4-yl)-1,3,4-thiadiazol-2-amine] | 2.40 fold | 32 |
| CNc1ccn(-c2ccc(-c3nnc(N(C)C4CC(C)(C)NC(C)(C)C4)s3)c(O)c2)n1 [Example 89, 2-(5-(methyl(2,2,6,6-tetramethylpiperidin-4-yl)amino)-1,3,4-thiadiazol-2-yl)-5-(3-(methylamino)-1H-pyrazol-1-yl)phenol] | 2.85 fold | 106 |
| CN1C[C@@H]2CN(c3nnc(-c4ccc(-n5ccnc5)cc4Cl)s3)C[C@@H]2C1 [Example 70, 2-(2-chloro-4-(1H-imidazol-1-yl)phenyl)-5-((3aR,6aS)-5-methylhexahydropyrrolo[3,4-c]pyrrol-2(1H)-yl)-1,3,4-thiadiazole] | 2.17 fold | 2570 |
| COc1cc(-c2cn[nH]c2)ccc1-c1nnc(N(C)C2CC(C)(C)NC(C)(C)C2)s1 [Example 7, 5-(2-Methoxy-4-(1H-pyrazol-4-yl)phenyl)-N-methyl-N-(2,2,6,6-tetramethylpiperidin-4-yl)-1,3,4-thiadiazol-2-amine] | 2.86 fold | 38 |
| CN(c1nnc(-c2ccc(-c3ccn[nH]3)c(F)c2F)s1)C1CC(C)(C)NC(C)(C)C1 [Example 49, 5-(2,3-difluoro-4-(1H-pyrazol-5-yl)phenyl)-N-methyl-N-(2,2,6,6-tetramethylpiperidin-4-yl)-1,3,4-thiadiazol-2-amine] | 2.42 fold | 81 |
| CN(c1nnc(-c2ccc(-n3cncn3)cc2Cl)s1)C1CC(C)(C)NC(C)(C)C1 [Example 68, 5-(2-chloro-4-(1H-1,2,4-triazol-1-yl)phenyl)-N-methyl-N-(2,2,6,6-tetramethylpiperidin-4-yl)-1,3,4-thiadiazol-2-amine] | 2.64 fold | 79 |
| CN1C[C@@H]2CN(c3nnc(-c4ccc(-c5cn[nH]c5)cc4F)s3)C[C@@H]2C1 [Example 84, 2-(2-fluoro-4-(1H-pyrazol-4-yl)phenyl)-5-((3aR,6aS)-5-methylhexahydropyrrolo[3,4-c]pyrrol-2(1H)-yl)-1,3,4-thiadiazole] | 2.11 fold | 193 |
| CN(c1nnc(-c2ccc(-c3cnn(C)c3)cc2C(F)(F)F)s1)C1CC(C)(C)NC(C)(C)C1 [Example 14] | inactive |  |
| CN(c1nnc(-c2cc(F)c(-c3ccn[nH]3)cc2F)s1)C1CC(C)(C)NC(C)(C)C1 [Example 51, 5-(2,5-difluoro-4-(1H-pyrazol-5-yl)phenyl)-N-methyl-N-(2,2,6,6-tetramethylpiperidin-4-yl)-1,3,4-thiadiazol-2-amine] | 2.86 fold | 85 |
| COc1cc(-c2c(C)n[nH]c2C)ccc1-c1nnc(N(C)C2CC(C)(C)NC(C)(C)C2)s1 [Example 13, 5-(4-(3,5-Dimethyl-1H-pyrazol-4-yl)-2-methoxy-phenyl)-N-methyl-N-(2,2,6,6-tetramethylpiperidin-4-yl)-1,3,4-thiadiazol-2-amine] | inactive |  |
| COc1cc(-c2ccc(O)nc2)ccc1-c1nnc(N(C)C2CC(C)(C)NC(C)(C)C2)s1 [Example 9, 5-(3-Methoxy-4-(5-(methyl(2,2,6,6-tetramethyl-piperidin-4-yl)amino)-1,3,4-thiadiazol-2-yl)phenyl)pyridin-2-ol] | 2.46 fold | 784 |
| CN(c1nnc(-c2ccc(-c3ccn[nH]3)cc2F)s1)C1CC(C)(C)NC(C)(C)C1 [Example 47, 5-(2-fluoro-4-(1H-pyrazol-5-yl)phenyl)-N-methyl-N-(2,2,6,6-tetramethylpiperidin-4-yl)-1,3,4-thiadiazol-2-amine] | 2.29 fold | 152 |
| CN1CC[C@@H]2CN(c3nnc(-c4ccc(-c5cn[nH]c5)cc4Cl)s3)C[C@@H]21 [Example 81, 2-(2-chloro-4-(1H-pyrazol-4-yl)phenyl)-5-((3aR,6aR)-1-methylhexahydropyrrolo[3,4-b]pyrrol-5(1H)-yl)-1,3,4-thiadiazole] | 2.38 fold | 1540 |
| Cc1cc(-c2ccc(-c3nnc(N(C)C4CC(C)(C)NC(C)(C)C4)s3)c(F)c2)[nH]n1 [Example 46, 5-(2-fluoro-4-(3-methyl-1H-pyrazol-5-yl)phenyl)-N-methyl-N-(2,2,6,6-tetramethylpiperidin-4-yl)-1,3,4-thiadiazol-2-amine] | 2.32 fold | 122 |
| CN(c1nnc(-c2ccc(-c3cnn(C)c3)cc2Cl)s1)C1CC(C)(C)NC(C)(C)C1 [Example 25, 5-(2-Chloro-4-(1-methyl-1H-pyrazol-4-yl)phenyl)-N-methyl-N-(2,2,6,6-tetramethylpiperidin-4-yl)-1,3,4-thiadiazol-2-amine] | 2.49 fold | 132 |
| CN(c1nnc(-c2ccc(-n3ccc(N)n3)cc2Cl)s1)C1CC(C)(C)NC(C)(C)C1 [Example 69, 5-(4-(3-amino-1H-pyrazol-1-yl)-2-chlorophenyl)-N-methyl-N-(2,2,6,6-tetramethylpiperidin-4-yl)-1,3,4-thiadiazol-2-amine] | 2.44 fold | 171 |
| CN(c1nnc(-c2c(F)cc(-c3cn[nH]c3)cc2F)s1)C1CC(C)(C)NC(C)(C)C1 [Example 52, 5-(2,6-difluoro-4-(1H-pyrazol-4-yl)phenyl)-N-methyl-N-(2,2,6,6-tetramethylpiperidin-4-yl)-1,3,4-thiadiazol-2-amine] | 3.30 fold | 61 |
| COc1cc(-n2cccn2)ccc1-c1nnc(N(C)C2CC(C)(C)NC(C)(C)C2)s1 [Example 1, 5-(2-methoxy-4-(1H-pyrazol-1-yl)phenyl)-N-methyl-N-(2,2,6,6-tetramethylpiperidin-4-yl)-1,3,4-thiadiazol-2-amine] | 2.45 fold | 63 |
| CN(c1nnc(-c2ccc(-c3ccn(C)c(=O)c3)cc2Cl)s1)C1CC(C)(C)NC(C)(C)C1 [Example 39, 4-(3-chloro-4-(5-(methyl(2,2,6,6-tetramethyl-piperidin-4-yl)amino)-1,3,4-thiadiazol-2-yl)phenyl)-1-methylpyridin-2(1H)-one] | 2.31 fold | 50 |
| COc1cc(C#N)ccc1-c1nnc(N(C)C2CC(C)(C)NC(C)(C)C2)s1 [Example 33, 3-methoxy-4-(5-(methyl(2,2,6,6-tetramethyl-piperidin-4-yl)amino)-1,3,4-thiadiazol-2-yl) benzonitrile] | 2.16 fold | 1040 |
| COc1cc2nc(C#N)ccc2cc1-c1nnc(N(C)C2CC(C)(C)NC(C)(C)C2)s1 [Example 37, 7-methoxy-6-(5-(methyl(2,2,6,6-tetramethyl-piperidin-4-yl)amino)-1,3,4-thiadiazol-2-yl) quinoline-2-carbonitrile] | 2.19 fold | 78 |
| COc1cc(-c2ncc(C)o2)cc(O)c1-c1nnc(N(C)C2CC(C)(C)NC(C)(C)C2)s1 [Example 28, 3-Methoxy-2-(5-(methyl(2,2,6,6-tetramethylpiperidin-4-yl)amino)-1,3,4-thiadiazol-2-yl)-5-(5-methyloxazol-2-yl)phenol] | 2.70 fold | 20 |
| Cn1cc(-c2ccc(-c3nnc(OC4CC(C)(C)NC(C)(C)C4)s3)c(Cl)c2)cn1 [Example 43, 2-(2-chloro-4-(1-methyl-1H-pyrazol-4-yl)phenyl)-5-((2,2,6,6-tetramethylpiperidin-4-yl)oxy)-1,3,4-thiadiazole] | 2.28 fold | 446 |
| COc1cc(-c2ccc(=O)n(C)c2)ccc1-c1nnc(N(C)C2CC(C)(C)NC(C)(C)C2)s1 [Example 10, 5-(3-Methoxy-4-(5-(methyl(2,2,6,6-tetramethyl-piperidin-4-yl)amino)-1,3,4-thiadiazol-2-yl)phenyl)-1-methylpyridin-2(1H)-one] | 2.65 fold | 79 |
